Reference: article PMC10815964, “Cyclobutanone Inhibitors of Diaminopimelate Desuccinylase (DapE) as Potential New Antibiotics” (International Journal of Molecular Sciences, 2024)
Several values for one entry are separate records, joined by “and”; a condition that tells them apart may be missing. Identical values can stand only once. Like-named read-outs stand apart in the source and are kept apart here.

Legend:
DapE = conditions: cited from earlier work
HiDapE = HiDapE (Haemophilus influenzae, UniProt P44514); assay: DapE inhibition, ninhydrin-based assay; type: biochemical
Method: All compounds were screened for DapE inhibitory potency using a ninhydrin-based assay at 100 μM, and IC50 values were determined for molecules that inhibited DapE > 70% at 100 μM (Table 1). Some SAR trends emerge from the data.
Experimental IC50 curves for cyclobutanone inhibitors against DapE were identified as sigmoidal shaped response curves, as opposed to simple hyperbolic plots. […] IC50 curves with the corresponding Hill coefficients are reported in the Supplementary Materials as Figures S74−S81. Experimental Hill coefficients may provide information on the number of binding sites of a biological target (receptors and enzymes) interacting with ligands.
The inhibition of HiDapE by potential inhibitors was assessed using the previously developed ninhydrin assay with slight modifications. It was performed in a PCR Thermal Cycler System. All experiments were performed in triplicate in 50 mM HEPES buffer at pH 7.5. Reaction volumes were 100 µL of 2 mM N^6-Methyl-L,L-SDAP and 8 nM HiDapE. Ninhydrin was purchased as a 2% solution in 100% DMSO/lithium acetate buffer at pH 5.2. The inhibitor, followed by HiDapE, was added to a 50 mM HEPES (pH 7.5) buffered solution at 30 °C, and the mixture was incubated at 30 °C for 10 min. N^6-Methyl-L,L-SDAP was added, and the reaction mixture was incubated at 30 °C for 10 min, then heated to 99 °C for 1 min, and further cooled to 0 °C for 1 min. The 2% ninhydrin solution (50 µL) was added, and the mixture was thoroughly mixed. The reaction mixture was heated to 80 °C for 15 min, then cooled to 0 °C for 1 min. The absorbance of an 80 μL aliquot was recorded at 570 nm on a BioTek Synergy 2 microplate reader. All the inhibition assays of HiDapE were performed in triplicate and the IC50 values were obtained by fitting the data following the modified Hill equation: V = V0 + (Vmax − V0) XnH/(XnH0.5 + XnH) using the graphing suite Origin 9.1 with the Levenberg–Marquardt non-linear least-squares algorithm. The velocity in the absence of the substrate is […]; the velocity at saturating concentrations of the substrate or with no inhibitor for the inhibition assay is Vmax; X is the concentration of the substrate or inhibitor; and X0.5 is the substrate (S0.5) and inhibitor (I0.5) concentration at 50% maximum velocity and at 50% inhibition, respectively. The Hill coefficient is represented as nH.

[1] = target: H. influenzae DapE (HiDapE) (Haemophilus influenzae, UniProt P44514); assay: Thermal shift assay (SYPRO Orange); type: binding
Method: A thermal shift assay was conducted to observe changes in the thermal stability of DapE under various concentrations of the inhibitor 3y, as summarized in Table 2. These studies were conducted on a Step One Real-Time PCR System and associated QuantStudio software (QuantStudio 5, Design and Analysis 2) through the fluorescence of the SYPRO Orange dye during protein denaturation. […] Upon addition of the inhibitor 3y, we observed a stabilization of the tertiary structure of the enzyme binding to the inhibitor, as indicated by a positive shift in the first melt temperature (Tm1). […] The thermal shift assay plot of Tm vs. log [3y (µM)] to determine the Ki of compound 3y is in the Supplementary Materials as Figure S82. […] Binding of a ligand most commonly leads to further stabilization of a protein, but destabilization as indicated by a lower Tm has been observed by others. Based on our previous work, [27] we observed sequential temperatures at which HiDapE was dissociating via circular dichroism: first at about 60 °C, which we hypothesize is the dimer dissociating, and a second at about 80 °C, which may represent denaturation of the monomer.
H. influenzae DapE was used at a final concentration of 200 nM and SYPRO Orange was used at a final concentration of 10×. It was performed in a Step One Real-Time PCR System (Applied Biosystems, Waltham, MA, USA). The experiment was carried out in 10 µL triplicates in 50 mM HEPES buffer at pH 7.5, nanopure water, and the inhibitor concentrations were based on the IC50 values of the inhibitor, 3y. Sample solutions were dispensed into a 96-well optical reaction plate (Thermo Fisher Scientific, Waltham, […], USA) and the plate was sealed with an optical PCR plate sheet (Thermo Fisher Scientific). […] Melting curves were obtained from the negative derivative and exported from the instrument into Excel. The negative melting temperatures were smoothed and differentiated to the negative third derivative. The Tm data were plotted against the log(concentration of 3y) with GraphPad Prism using a derived Van’t Hoff equation [39] to find the Ki value.

[2] = Cyclobutanone/hydrate equilibrium by NMR; type: physicochemical
Text: Cyclobutanone 3y is soluble in CDCl3, but we wanted to vary the amount of D2O, and water has a solubility of only 0.815% in chloroform, so varying the quantity of D2O would not alter the concentration of D2O in CDCl3 solution once saturation is reached. We therefore selected DMSO-d6 as the solvent to enable the varying of the D2O concentration, which also provides a more polar environment that is more conducive to hydrate formation and is a better mimic of the environment of the enzyme in aqueous media. The ratio of hydrate to ketone was determined by the ratio of the integrals of the proton alpha to the hydrate/carbonyl and the α-amino group, which was 4.67 ppm for the hydrate in DMSO-d6 + 20% D2O and 4.40 ppm for the cyclobutanone ketone in DMSO-d6 + 20% D2O.
Cyclobutanone 3y was massed to 2–3 mg and the exact mass was recorded. Compound 3y was then dissolved in the appropriate amount of deuterated solvent (DMSO-d6 or CDCl3) and vortexed. The appropriate amount of deuterium oxide (0%, 2%, 10%, 20%, or 30%) was added to the sample and the sample was vortexed. The sample was inserted into the Bruker 500 MHz NMR and data were collected for 64 scans. The raw data were analyzed with the Mnova NMR program, and the Keq was calculated via the method described by the Wiberg group.

[3] = parameters: method as in doi:10.1021/ja00103a024; conditions: in D2O, cited from earlier work

Sequence of H. influenzae DapE (HiDapE) (P44514 whole entry): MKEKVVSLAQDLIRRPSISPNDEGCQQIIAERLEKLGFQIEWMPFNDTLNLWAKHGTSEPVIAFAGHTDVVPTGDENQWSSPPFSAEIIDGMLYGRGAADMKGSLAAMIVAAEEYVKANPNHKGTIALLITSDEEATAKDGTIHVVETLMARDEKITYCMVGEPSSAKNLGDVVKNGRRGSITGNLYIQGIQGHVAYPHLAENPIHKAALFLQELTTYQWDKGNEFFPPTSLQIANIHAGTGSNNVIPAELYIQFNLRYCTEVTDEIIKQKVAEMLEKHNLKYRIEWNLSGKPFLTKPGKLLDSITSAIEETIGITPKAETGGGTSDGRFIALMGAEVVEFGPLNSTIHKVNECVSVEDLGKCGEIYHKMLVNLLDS
Sequence of HiDapE (P44514 whole entry): as above

C[C@H](CS)C(=O)N1CCC[C@H]1C(=O)O [captopril]
DapE inhibition (DapE): low micromolar inhibitor

COc1ccc(S(=O)(=O)N[C@@H](C(=O)NC2CCC2=O)C(C)C)cc1 (mixture of isomers) [3y, (2R)-2-((4-Methoxyphenyl)sulfonamido)-3-methyl-N-(2-oxocyclobutyl)butanamide]
inhibition at 100 µM (HiDapE; 100 µM inhibitor, read-out: DapE % Inhib at 100 µM): 99.7% | IC50 (HiDapE; ninhydrin assay): 23.1 ± 0.9 µM | Tm1 ([1]; 200 nM HiDapE + 1 μM 3y): 49.6 +/− 0.18 °C | Tm2 ([1]; 200 nM HiDapE + 1 μM 3y): 76.5 +/− 0.54 °C | Tm1 ([1]; 200 nM HiDapE + 5 μM 3y): 49.0 +/− 0.30 °C | Tm2 ([1]; 200 nM HiDapE + 5 μM 3y): 77.3 +/− 0.20 °C | Tm1 ([1]; 200 nM HiDapE + 10 μM 3y): 50.0 +/− 0.34 °C | Tm2 ([1]; 200 nM HiDapE + 10 μM 3y): 77.3 +/− 0.23 °C | Tm1 ([1]; 200 nM HiDapE + 20 μM 3y): 51.2 +/− 0.13 °C | Tm2 ([1]; 200 nM HiDapE + 20 μM 3y): 77.3 +/− 0.51 °C | Tm1 ([1]; 200 nM HiDapE + 30 μM 3y): 52.1 +/− 0.5 °C | Tm2 ([1]; 200 nM HiDapE + 30 μM 3y): 75.1 +/− 0.17 °C | Tm1 ([1]; 200 nM HiDapE + 40 μM 3y): 52.7 +/− 0.37 °C | Tm2 ([1]; 200 nM HiDapE + 40 μM 3y): 75.2 +/− 0.11 °C | Tm1 ([1]; 200 nM HiDapE + 50 μM 3y): 53.4 +/− 0.23 °C | Tm2 ([1]; 200 nM HiDapE + 50 μM 3y): 74.7 +/− 0.40 °C | Tm1 ([1]; 200 nM HiDapE + 60 μM 3y): 54.1 +/− 0.35 °C | Tm2 ([1]; 200 nM HiDapE + 60 μM 3y): 75.1 +/− 0.23 °C | Tm1 ([1]; 200 nM HiDapE + 75 μM 3y): 54.6 +/− 0.42 °C | Tm2 ([1]; 200 nM HiDapE + 75 μM 3y): 75.7 °C and 75.7 +/− 0.29 °C | Ki ([1]; from Tm1 vs log[3y], 200 nM HiDapE): 10.2 µM | % Hydrate ([2]; CDCl3 + 30% D2O): 7.33% | Keq = [hydrate]/[ketone] ([2]; CDCl3 + 30% D2O (saturated with D2O)): 0.082 | % Hydrate ([2]; DMSO-d6 + 2% D2O): 35.4% | Keq = [hydrate]/[ketone] ([2]; DMSO-d6 + 2% D2O): 0.58 | % Hydrate ([2]; DMSO-d6 + 10% D2O): 38.8% | Keq = [hydrate]/[ketone] ([2]; DMSO-d6 + 10% D2O): 0.61 | % Hydrate ([2]; DMSO-d6 + 20% D2O): 40% | melting point: 179 to 181 °C

O=C1CCC1 [Cyclobutanone, cyclobutanone]
% Hydrate [3]: 2.0% | Keq = [hydrate]/[ketone] [3]: 2.8 × 10^−3 | % Hydrate ([3]; listed as cyclobutanone): about 2%
